± gives the expanded uncertainty stated by the source.
Legend:
[1] = Crystal; DTA
[2] = Molar enthalpy of transition or fusion; details: Crystal; DSC

Row | Normal melting temperature [1] [°C] | Molar enthalpy of transition or fusion [2] [kcal/mol] | Structure (SMILES)
1 | 38.5 ± 0.53 | 9.41 ± 0.263 | NCCCCCCN [1,6-hexanediamine]
2 | 51.73 ± 0.53 | 12.1 ± 0.359 | NCCCCCCCCN [1,8-diaminooctane]
3 | 68.69 ± 0.53 | 16 ± 0.359 | NCCCCCCCCCCCCN [1,12-dodecanediamine]
4 | 81.54 ± 0.53 | 4.67 ± 0.215 | c1ccc2ccccc2c1 [naphthalene]
